This is an account of results in PubChem BioAssay AID588605 (Sanford-Burnham Center for Chemical Genomics, 2011).

Active and inactive are the calls of the source. How the calls were made is not given here. Some results are limits rather than exact numbers.

The test deals with Alkaline phosphatase, tissue-nonspecific isozyme (Homo sapiens) (UniProt P05186). The test is described as follows: TNAP enzyme activity modulation, counter to mouse IAP activators, SAR follow-up, selectivity assay for mouse IAP activator project, biochemical, set 2 (AID 588605). The settings on record: SAR counter-screen for mouse IAP activators.
Sequence of Alkaline phosphatase, tissue-nonspecific isozyme (Homo sapiens) (P05186 whole entry, looked up): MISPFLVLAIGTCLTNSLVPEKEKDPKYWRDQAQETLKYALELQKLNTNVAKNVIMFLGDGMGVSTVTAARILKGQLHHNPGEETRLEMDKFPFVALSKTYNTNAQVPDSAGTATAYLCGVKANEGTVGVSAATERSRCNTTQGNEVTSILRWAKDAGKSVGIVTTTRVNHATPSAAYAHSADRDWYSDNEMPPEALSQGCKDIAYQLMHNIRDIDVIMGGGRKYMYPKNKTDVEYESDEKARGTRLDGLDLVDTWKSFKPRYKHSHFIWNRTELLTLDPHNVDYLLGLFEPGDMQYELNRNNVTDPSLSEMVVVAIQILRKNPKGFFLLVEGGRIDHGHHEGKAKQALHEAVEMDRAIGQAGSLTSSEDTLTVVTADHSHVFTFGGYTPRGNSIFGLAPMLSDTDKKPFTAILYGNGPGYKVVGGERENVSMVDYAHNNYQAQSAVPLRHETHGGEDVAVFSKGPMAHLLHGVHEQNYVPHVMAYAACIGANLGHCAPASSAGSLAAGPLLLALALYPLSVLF
Regarding `O=S(=O)(c1ccc(NC(=S)NCC(c2ccccc2)c2ccccc2)cc1)N1CCCCC1`, the EC50 is 25.5 µM.

For `CN(C)S(=O)(=O)c1ccc(NC(=S)NCCc2cccc(O)c2)cc1`, the EC50 was > 100 µM (inactive).

For the compound `O=c1c2ccccc2[nH]c(=S)n1-c1cccc(S(=O)(=O)N2CCCC2)c1`, the EC50 is > 100 µM (inactive).

Regarding `CN(C)S(=O)(=O)c1ccc(NC(=S)NCc2ccc(Cl)cc2)cc1`, the EC50 is > 100 µM (inactive).

For the compound `CN(C)S(=O)(=O)c1ccc(NC(=S)NCCN2CCCC2)cc1`, the EC50 is > 100 µM (inactive).

On to `CCN(CC)CCCNC(=S)Nc1cccc(S(=O)(=O)N(C)C)c1`, for which the EC50 was > 100 µM (inactive).

Regarding `O=S(=O)(c1ccc(NC(=S)NCC(c2ccccc2)c2ccccc2)cc1)N1CCCC1`, the EC50 was 19.9 µM.

Turning to `Cc1ccc(S(=O)(=O)N(C)C)cc1NC(=S)NC(=O)C12CC3CC(CC(C3)C1)C2`, the EC50 was > 100 µM (inactive).

In the case of `CN(C)S(=O)(=O)c1cccc(NC(=S)NCCN2CCCC2)c1`, the EC50 is > 100 µM (inactive).

`CN(C)S(=O)(=O)c1cccc(NC(=S)NC(c2ccccc2)c2ccccc2)c1`: the EC50 was 20 µM.

On to `CN(C)CCCNC(=S)Nc1cccc(S(=O)(=O)N(C)C)c1`, for which the EC50 was > 100 µM (inactive).

On to `CN(C)S(=O)(=O)c1cccc(NC(=S)NCCc2ccccc2)c1`, for which the EC50 was 97.8 µM.

`CN(C)S(=O)(=O)c1ccc(NC(=S)NCCc2cccc(Br)c2)cc1`: the EC50 is 65.5 µM.

Consider `O=C(CCc1ccccc1)NC(=S)Nc1cccc(S(=O)(=O)N2CCCC2)c1`, for which the EC50 is > 100 µM (inactive).

Turning to `CC1CC(NC(=S)Nc2cccc(S(=O)(=O)N(C)C)c2)CC(C)N1` (centres undefined), the EC50 was > 100 µM (inactive).

Turning to `Cc1ccc(CNC(=S)Nc2cccc(S(=O)(=O)N(C)C)c2)cc1`, the EC50 is > 100 µM (inactive).

For the compound `CCN(CC)S(=O)(=O)c1ccc(NC(=S)NCC(c2ccccc2)c2ccccc2)cc1`, the EC50 is 45.8 µM.

For `CN(C)S(=O)(=O)c1cccc(NC(=S)NCCC(=O)N2CCCC2)c1`, the EC50 was > 100 µM (inactive).

As for `Cc1ccc(C)c(NC(=S)Nc2ccc(S(=O)(=O)N3CCCCC3)cc2)c1`, the EC50 is > 100 µM (inactive).

As for `Cc1ccc(S(=O)(=O)N(C)C)cc1NC(=S)NC(C)CCC(C)C` (centres undefined), the concentration for a half-maximal effect (EC50) was 87.1 µM.

`O=C(NC(=S)Nc1cc(S(=O)(=O)N2CCOCC2)ccc1N1CCOCC1)c1ccco1`: the EC50 is > 100 µM (inactive).

As for `CCN(CC)S(=O)(=O)c1ccc(NC(=S)NC(c2ccccc2)c2ccccc2)cc1`, the EC50 is 29 µM.

As to `CC1CCN(S(=O)(=O)c2ccc(NC(=S)NCCC(c3ccccc3)c3ccccc3)cc2)CC1`, the EC50 is 18.9 µM.

Take `Cc1ccc(CNC(=S)Nc2ccc(S(=O)(=O)N(C)C)cc2)cc1`: the EC50 was 86.1 µM.

Take `CN(C)S(=O)(=O)c1ccc(NC(=S)NCCc2ccccc2)cc1`: the EC50 was > 100 µM (inactive).

Take `CN(C)S(=O)(=O)c1ccc(NC(=S)NC(c2ccccc2)c2ccccc2)cc1`: the EC50 is 18.4 µM.

With `COc1ccc(CCNC(=S)Nc2ccc(S(=O)(=O)N3CCCCC3)cc2)cc1`, the EC50 is 40.1 µM.

As to `COc1cccc(CCNC(=S)Nc2cccc(S(=O)(=O)N(C)C)c2)c1`, the EC50 is 90.3 µM.

On to `CN(C)S(=O)(=O)c1ccc(NC(=S)NCC(c2ccccc2)c2ccccc2)cc1`, for which the EC50 was 95.2 µM.

`O=C(NC(=S)Nc1cc(S(=O)(=O)N2CCOCC2)ccc1O)c1ccco1`: the EC50 was > 100 µM (inactive).

`CN(C)S(=O)(=O)c1cccc(NC(=S)NCCc2cccc(Br)c2)c1`: the EC50 is 57.9 µM.

For the compound `CN(C)S(=O)(=O)c1ccc(NC(=S)NCCC(c2ccccc2)c2ccccc2)cc1`, the EC50 was 38.6 µM.

In the case of `COc1cccc(CNC(=S)Nc2ccc(S(=O)(=O)N(C)C)cc2)c1`, the EC50 is > 100 µM (inactive).

As to `Cc1ccc(S(=O)(=O)N(C)C)cc1NC(=S)NC1CCN(Cc2ccccc2)CC1`, the EC50 was > 100 µM (inactive).

Take `O=S(=O)(c1ccc(NC(=S)NCCC(c2ccccc2)c2ccccc2)cc1)N1CCCC1`: the EC50 was 49.8 µM.

In the case of `Cc1ccc(S(=O)(=O)N(C)C)cc1NC(=S)NCCCn1ccnc1`, the EC50 was > 100 µM (inactive).

As to `O=S(=O)(c1ccc(NC(=S)NCCC(c2ccccc2)c2ccccc2)cc1)N1CCCCC1`, the EC50 is 47.2 µM.

`CC(CNC(=S)Nc1cccc(S(=O)(=O)N(C)C)c1)N1CCN(c2ccccc2)CC1` (centres undefined): the EC50 is > 100 µM (inactive).

Take `CC1CCN(S(=O)(=O)c2ccc(NC(=S)NC(c3ccccc3)c3ccccc3)cc2)CC1`: the EC50 is > 100 µM (inactive).

Take `O=S(=O)(c1ccc(NC(=S)NCc2cccc(F)c2)cc1)N1CCCCC1`: the EC50 is 53.6 µM.

For `CN(CCc1ccccc1)C(=S)Nc1cccc(S(=O)(=O)N(C)C)c1`, the EC50 was > 100 µM (inactive).

As for `CCOc1cc(CCNC(=S)Nc2ccc(S(=O)(=O)N(C)C)cc2)ccc1OC`, the EC50 is > 100 µM (inactive).

Take `CN(C)S(=O)(=O)c1cccc(NC(=S)NCCCN2CCCC2=O)c1`: the EC50 is > 100 µM (inactive).

For `CCN(CC)c1ccc(C(=O)NC(=S)Nc2cc(S(=O)(=O)N3CCOCC3)ccc2-n2cncn2)cc1`, the EC50 is > 100 µM (inactive).

Consider `CN(CCc1ccccn1)C(=S)Nc1cccc(S(=O)(=O)N(C)C)c1`, for which the EC50 is > 100 µM (inactive).

Turning to `Cc1ccc(S(=O)(=O)N(C)C)cc1NC(=S)NC(C)CCCC(C)C` (centres undefined), the concentration giving a half-maximal response (EC50) was 57.9 µM.

Regarding `CN(C)S(=O)(=O)c1cccc(NC(=S)NCCCn2ccnc2)c1`, the EC50 is > 100 µM (inactive).

Turning to `O=S(=O)(c1ccc(NC(=S)NC(c2ccccc2)c2ccccc2)cc1)N1CCCCC1`, the EC50 is 11 µM.

For `CN(C)S(=O)(=O)c1cccc(NC(=S)NCc2ccc(Cl)cc2)c1`, the EC50 was 92.5 µM.

Regarding `CN(C)CC(C)(C)CNC(=S)Nc1cccc(S(=O)(=O)N(C)C)c1`, the EC50 is > 100 µM (inactive).

With `CN(C)S(=O)(=O)c1cccc(NC(=S)NCCc2ccc(F)cc2)c1`, the EC50 was > 100 µM (inactive).

With `COc1ccc(CCNC(=S)Nc2ccc(S(=O)(=O)N3CCCCC3)cc2)cc1OC`, the EC50 is 94.4 µM.

Take `COc1ccccc1CNC(=S)Nc1ccc(S(=O)(=O)N(C)C)cc1`: the half-maximal effective concentration (EC50) was 89.9 µM.

Consider `CN(C)S(=O)(=O)c1cccc(NC(=S)NCCc2ccc(Br)cc2)c1`, for which the EC50 was 86.7 µM.

As to `CCN(CC)S(=O)(=O)c1ccc(NC(=S)NCCC(c2ccccc2)c2ccccc2)cc1`, the EC50 is 29.7 µM.

On to `CN(C)S(=O)(=O)c1cccc(NC(=S)NC(C)(C)CC(C)(C)C)c1`, for which the EC50 is 91.5 µM.

On to `O=S(=O)(c1ccc(NC(=S)NC(c2ccccc2)c2ccccc2)cc1)N1CCCC1`, for which the EC50 is 26.1 µM.

As to `CN(C)S(=O)(=O)c1cccc(NC(=S)NCC(c2ccccc2)c2ccccc2)c1`, the EC50 is 22.9 µM.

In the case of `CN(C)S(=O)(=O)c1cccc(NC(=S)NCCc2cccc(O)c2)c1`, the EC50 is > 100 µM (inactive).

`CC(CCc1ccccc1)NC(=S)Nc1cccc(S(=O)(=O)N(C)C)c1` (centres undefined): the concentration for a half-maximal effect (EC50) is 62.8 µM.

`COc1ccc(CNC(=S)Nc2ccc(S(=O)(=O)N3CCCCC3)cc2)cc1OC`: the EC50 is 75.3 µM.

As to `CN(C)S(=O)(=O)c1cccc(NC(=S)NCCc2cccc(F)c2)c1`, the EC50 was > 100 µM (inactive).

As to `CN(C)S(=O)(=O)c1cccc(NC(=S)NCCC(c2ccccc2)c2ccccc2)c1`, the EC50 was > 100 µM (inactive).

For the compound `Cc1ccccc1CNC(=S)Nc1ccc(S(=O)(=O)N(C)C)cc1`, the concentration for a half-maximal effect (EC50) was 75.6 µM.
